Laboratory results as given in US7482362B2, “Substituted-4-quinolones” (priority 2000, dated 2009).

What was measured:
[1] = system: Human peripheral blood mononuclear cells (PBMC); experiment: In vitro proliferation assay of ConA-stimulated human PBMC (3H-thymidine); assay type: cell-based; conditions: ConA 1 μg/ml, 0.78125 to 100 μM; FIG. 4A
Description: (§1) Human peripheral blood mononuclear cells (PBMC) were isolated from heparinised whole blood by buoyant density centrifugation over Histopague 1077 (Sigma, Poole, UK) 600 g for 20 minutes. PBMC harvested from the ‘buffy’ layers were washed and then aliquoted into 96-well plates at 100,000 per well. PBMC were exposed to bacterial quorum sensing molecules (PQS or OdDHL) at concentrations ranging from 0.78125 to 100 μM and then stimulated with 1 μg/ml of Concanavalin A (ConA). After an overnight culture 50 μl of the culture supernatant was removed for the detection of IL-2 released by ‘sandwich’ ELISA. The cells were returned to culture for another 24 hours before 0.25 μCi per well of ^3H-thymidine was added. Following an 18-hour pulse the human PBMC were harvested onto fibreglass filters which were then counted in the presence of MicroScint-O with the Packard TopCount scintillation counter.

IL-2 = IL-2 release from ConA-stimulated human PBMC, sandwich ELISA; assay type: cell-based; conditions: ConA 1 μg/ml, culture supernatant, FIG. 4B
Description: as §1, with “The cells were returned to culture for another 24 hours before 0.25 μCi per well of ^3H-thymidine was added.” left out
Human leucocytes when stimulated with ConA released the cytokine IL-2. The levels of cytokine produced in the culture supernatants after 24 h were determined in a ‘sandwich’ ELISA. […] Following four washes, the bound biotinylated antibody was detected with 50 μl of a 1:1,000 dilution of Streptavidin-peroxidase (BD Pharmingen, UK). […] The enzyme reaction was stopped with 50 μl of 2.5 M H2SO4 after a development of 10 minutes at room temperature and the development was read at 450 nm with a spectrophotometric 96-well plate reader.

TNF-α = experiment: In vitro LPS stimulation of human PBMC for the release of TNF-α, sandwich ELISA; assay type: cell-based; conditions: FIG. 4C
Description: Human PBMC, at 100,000 cell per well, were stimulated with 1×10^−5 μg/ml LPS E. coli strain 055:B5. Following culture for 24 hours the cell culture supernatants were collected and tested for TNF-α levels by ‘sandwich’ ELISA similarly described above for the IL-2 detection assay.

murine splenocytes = experiment: ConA mitogen-stimulated proliferation of murine splenocytes ([3H]-thymidine incorporation); assay type: cell-based, mouse (BALB/c); conditions: ConA 1 μg/ml, 100,000 spleen cells, compound about 10 to 0.2 μM; FIG. 1
Description: 1. ConA Mitogen-Stimulated Proliferation of Murine Splenocytes
The concanavalin A (ConA) cell proliferation assay was used to assess the effect of the title compound on T-cell activation and proliferation. Proliferation was assessed by the incorporation of [^3H]-thymidine into DNA. Eight-week-old female BALB/c mice were obtained from Harlan (Bicester, Oxon, UK) and given food and water ad libitum. Splenocyte suspensions were prepared by removing the spleens and placing them into RPMI 1640 medium. The spleens were forced through 70 μm pore size wire gauzes using the plunger from a 5 ml syringe to produce a single cell suspension. The cells were pelleted by centrifugation, and erythrocytes were lysed with 0.017M Tris, 0.144M ammonium chloride buffer, pH 7.2. Leucocytes were washed twice with RPMI 1640 medium with 2% (vol/vol) foetal calf serum (FCS) and resuspended in complete cell culture medium (CTCM) consisting of RPMI 1640 medium with 5% FCS, 2 mM L-glutamine, and 5×10−5 M 2-mercaptoethanol. The title compound was tested at doubling down dilutions ranging from about 10 to 0.2 μM in a final volume of 200 μl of CTCM, containing ConA (Sigma, Poole, UK) at 1 μg/ml and 100,000 spleen cells. […] After the addition of 25 μl of MicroScint-O (Packard) to each well the filters were counted with the Packard TopCount scintillation counter. […]

Mono Mac 6 cells = experiment: Mono Mac 6 cellular viability by MTS conversion to formazan; assay type: cell-based, human; conditions: Mono Mac 6, 100,000 cells per well, overnight exposure, 3.90625 to 500 μM; FIG. 2, 3
Description: The human monocytic cell line, Mono Mac 6, was treated with concentrations of bacterial quorum sensing molecules 2-heptyl-3-hydroxy-4(1H)quinolone (PQS), N-(3-oxododecanoyl)-L-homoserine lactone (OdDHL) and N-(3-oxohexanoyl)-L-homoserine lactone. Cells at 100,000 per well were exposed to quorum sensing molecules ranging from 3.90625 to 500 μM after which the cells were stimulated with 10 ng/ml E. coli LPS and 5 ng/ml phorbol-myristrate acetate to induce the overnight release of TNF-αinto the culture media. A tetrazolium compound (3-(4,5-dimethylthazol-2-yl)-5-(3-carboxymethoxyphenyl)-2-(4-sulfophenyl)-2H-tetrazolium, inner salt MTS was added to the cells to determine cellular viability after treatment with the quorum sensing molecules. MTS is bioreduced by cells into a formazan product that is soluble in tissue culture medium. The production of formazan was determined by measuring the absorbance of the compound at 450 nm. The results are shown in FIG. 2. A titration of cell numbers was included to correlate to the number of viability cells in the treated wells as set out in the table below.

Row | SMILES | human PBMC cell proliferation [1] | IL-2 secretion (IL-2) | TNF-α production (TNF-α; LPS E. coli 055:B5, 24 hours) | splenocyte proliferation (counts per minute, [3H]-thymidine incorporation) (murine splenocytes) | cell viability, as adjudged by MTS conversion (Mono Mac 6 cells) | TNF-α production at high dose (TNF-α; LPS-stimulated, high dose) | TNF-α production at low dose (TNF-α; LPS-stimulated, low dose)
1 | CCCCCCCCCC(=O)CC(=O)N[C@H]1CCOC1=O [OdDHL, N-(3-oxododecanoyl)-L-homoserine lactone] | inhibits | inhibits | inhibits |  |  |  | 
2 | CCCCCCCc1[nH]c2ccccc2c(=O)c1O [PQS, 2-heptyl-3-hydroxy-4(1H)quinolone] |  |  |  | inhibits | no effect | may enhance | no effect
